# In US20150283120A1, “ANTIBIOTIC METHODS AND COMPOSITIONS FOR BACTERIA INFECTIONS” (THE UNIVERSITY OF CHICAGO, priority 2012, published 2015):
# Entries after “also recorded” stand apart in the source; their conditions may differ. Where two headings read alike, the source gives them in different places.
# What was measured:
# [1] = tested on: test strain (923 pPvra-lux); experiment: Primary screen: growth (OD) of test strain with compound, with and without oxacillin; assay type: cell-based, Staphylococcus aureus; details: compound 10 μM, with and without oxacillin 2 μg/mL; OD at 24 h; library screened twice
# [2] = tested on: vraSR operon (vra promoter, Pvra::lux); experiment: Primary screen: Pvra-lux luminescence (vraSR induction); assay type: cell-based, Staphylococcus aureus; details: compound 10 μM, oxacillin 2 μg/mL; luminescence at 2 hours; library screened twice
# [3] = tested on: MRSA strain USA300 Pvra-lux; assay type: cell-based, Staphylococcus aureus; details: compound 10 μM + oxacillin 2 μg/mL; for RG avg (relative growth): ratio of OD600 to oxacillin alone, four runs
# Method in brief: (§1)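 Secondary screen: compound at 10 μM plus oxacillin 2 μg/mL, four biological replicates, luminescence read every 15 minutes. RG and RL are OD600 or max LU with compound plus oxacillin over pooled same-plate oxacillin controls; RL <0.8 repressor, >1.2 stimulator, 0.80-1.2 neutral.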
# [4] = tested on: vraSR transcription (Pvra::lux); assay type: cell-based, Staphylococcus aureus; details: compound 10 μM + oxacillin 2 μg/mL; for RL avg (relative luminescence): ratio of LU to oxacillin alone, four runs
# Method in brief: as §1
# vraR transcription = experiment: Tertiary screen: qRT-PCR of vraR in strain 923; assay type: cell-based, Staphylococcus aureus; details: for classification of lux screen result against qRT-PCR (true/false repressor or stimulator): in the presence of oxacillin; for Effect on vraSR Transcription: With oxacillin: qRT-PCR of vraR, compound 10 μM + oxacillin 2 μg/mL
# [5] = tested on: MRSA strain USA300-isolate 923; experiment: Checkerboard MIC testing of compounds with oxacillin; assay type: cell-based, Staphylococcus aureus; details: for oxacillin MIC: strain 923, 24 h; for change of the MIC of oxacillin with compound concentration: strain 923, checkerboard; for bactericidal effect of oxacillin (MBC, >99.9% killing): strain 923, wells with FICi≦0.5 spotted on TSA
# diverse MRSA strains = experiment: MIC of oxacillin with a single concentration of compound in multiple MRSA strains; assay type: cell-based, Staphylococcus aureus; details: for MIC 80 of Ox in presence of compound: panel of 11 MRSA isolates, clom 3.8 μM, gos 15 μM, pyr 0.5 μM; for MIC50 of oxacillin in the presence of compound / MIC80 of oxacillin in the presence of compound / fold decrease in the oxacillin MIC50: panel of strains; for fold decrease in the oxacillin MIC50: with compound against oxacillin alone
# Procedure: Testing potentiation of oxacillin by compounds in multiple MRSA strains: In order to be considered a synergistic agent in therapy of MRSA infection, it must be effective as a potentiator in diverse MRSA strains. To determine whether the oxacillin potentiators were effective against MRSA strains besides USA300, a single effective concentration of three compounds that were not known as antibiotics—gossypol, pyrvinium and clomiphene—were tested against multiple MRSA genetic backgrounds. Each compound was tested at a single optimal concentration, determined in the checkerboard assays, in combination with various concentrations of oxacillin. The strains included in this panel were from diverse genetic backgrounds as determined by multilocus sequence type (MLST) and contained a variety of SCCmec types. […] The MIC80 was […] for clomiphene, gossypol, and pyrvinium, respectively.
# VRS1 = experiment: microbe, parasite or virus in culture; assay type: cell-based, Staphylococcus aureus; details: for MIC: Staphylococcus aureus, read-out: MIC compound
# Excerpt: (§2) As shown in the analysis of the checkerboard assays (Table 6), gossypol fully potentiated vancomycin (FIC i<0.5) in hVISA, VISA, VRS2 and VRS1. […] Clomiphene partially potentiated vancomycin in hVISA, VISA, and VRS1 and it fully potentiated in strain VRS2.
# VRS2 = experiment: microbe, parasite or virus in culture; assay type: cell-based, Staphylococcus aureus; details: for MIC: Staphylococcus aureus, read-out: MIC compound; for Synergy category: with vancomycin
# Excerpt: as §2
# hVISA 2275 = experiment: microbe, parasite or virus in culture; assay type: cell-based, Staphylococcus aureus; details: for MIC: Staphylococcus aureus, read-out: MIC compound; for MIC (in combination) compound+: compound MIC with the indicated Van concentration; for Synergy category: with vancomycin
# Excerpt: as §2
# VISA 2283 = experiment: microbe, parasite or virus in culture; assay type: cell-based, Staphylococcus aureus; details: for Synergy category: VISA 2283, with vancomycin
# Excerpt: as §2
# MRSA strain 8004-01 = experiment: Checkerboard oxacillin + compound, strain 8004-01; design: MIC OX / MIC OX (+) / MIC cmpd alone: unit not given beside the values; details: strain 8004-1 (ST239); for MIC cmpd +: compound in combination with oxacillin; for FICi: oxacillin + compound; for MIC OX (+): oxacillin in combination with compound
# strain 11095 = experiment: Checkerboard oxacillin + compound, strain 11095; design: MIC OX / MIC OX (+) / MIC cmpd alone: unit not given beside the values; details: for FICi: oxacillin + compound
smiles,measurement,setting,value
"Cc1cc2c(C(C)C)c(O)c(O)c(C=O)c2c(O)c1-c1c(C)cc2c(C(C)C)c(O)c(O)c(C=O)c2c1O [Gossypol, 2,2′-bis-(Formyl-1,6,7-trihydroxy-5-isopropyl-3-methylnaphthalene)]",primary screen category by effect on growth of MRSA strain 923,[1],strong growth inhibitors on their own
same,primary screen category by effect on vraSR (Pvra-lux luminescence),[2],repressed Pvra::lux in both primary screens
same,OD600 category,[3],inhibited (of <0.8 were classified as oxacillin synergists or potentiators)
same,RG avg (relative growth),[3],0.16
same,Effect on vraSR transcription,[4],repress (“vraSR repressors” (mean RL of <0.8))
same,RL avg (relative luminescence),[4],0.11
same,classification of lux screen result against qRT-PCR (true/false repressor or stimulator),vraR transcription,true vraSR expression repressors
same,Effect on vraSR Transcription: With oxacillin,vraR transcription,vraR inhibitors; also recorded: repress
same,oxacillin MIC,[5]; compound 0.25 μM,32 µg/mL
same,oxacillin MIC,[5]; compound 0.5 μM,32 µg/mL
same,oxacillin MIC,[5]; compound 1 μM,16 µg/mL
same,oxacillin MIC,[5]; compound 2 μM,4 µg/mL
same,oxacillin MIC,[5]; compound 4 μM,2 µg/mL
same,oxacillin MIC,[5]; compound 8 μM,2 µg/mL
same,oxacillin MIC,[5]; compound 16 μM,2 µg/mL
same,change of the MIC of oxacillin with compound concentration,[5],dose dependent decrease
same,"bactericidal effect of oxacillin (MBC, >99.9% killing)",[5],increased the bactericidal effect of oxacillin
same,MIC 80 of Ox in presence of compound,diverse MRSA strains,8 µg/mL
same,MIC50 of oxacillin in the presence of compound,diverse MRSA strains,0.5 µg/mL
same,MIC80 of oxacillin in the presence of compound,diverse MRSA strains,0.008 µg/mL
same,fold decrease in the oxacillin MIC50,diverse MRSA strains,32 fold
same,MIC,VRS1,20.8 µg/mL
same,Synergy category,"VRS1; VRS1, with vancomycin, listed as Gos",synergistic (fully potentiated vancomycin (FIC i<0.5))
same,MIC,VRS2,5.2 µg/mL
same,FICi V + compound,VRS2; VRS2,0.31
same,Van FIC,VRS2; VRS2,0.06
same,compound FIC,VRS2; VRS2,0.25
same,fold decrease Van MIC,VRS2; VRS2,16 fold
same,MIC (in combination) compound+,"VRS2; VRS2, compound MIC with the indicated Van concentration",1.3
same,Synergy category,"VRS2; VRS2, listed as Gos",synergistic (fully potentiated vancomycin (FIC i<0.5))
same,MIC,hVISA 2275,10.4 µg/mL
same,FICi V + compound,hVISA 2275; hVISA 2275,0.38
same,Van FIC,hVISA 2275; hVISA 2275,0.25
same,compound FIC,hVISA 2275; hVISA 2275,0.125
same,fold decrease Van MIC,hVISA 2275; hVISA 2275,4 fold
same,MIC (in combination) compound+,hVISA 2275; hVISA 2275,1.3
same,Synergy category,hVISA 2275; hVISA 2275,fully potentiated (fully potentiated vancomycin (FIC i<0.5))
same,Synergy category,"hVISA 2275; hVISA 2275, listed as Gos",synergistic (fully potentiated vancomycin (FIC i<0.5))
same,MIC,"VISA 2283; Staphylococcus aureus, VISA, read-out: MIC compound",10.4 µg/mL
same,Synergy category,VISA 2283,fully potentiated (fully potentiated vancomycin (FIC i<0.5))
same,Synergy category,VISA 2283; listed as Gos,partial (partially potentiated vancomycin (FIC i>0.5 and <1.0))
same,FIC Compound,MRSA strain 8004-01,.5
same,FIC Ox,MRSA strain 8004-01,.06
same,MIC cmpd alone,MRSA strain 8004-01,40
same,MIC cmpd +,MRSA strain 8004-01,20 µg/mL
same,FICi,MRSA strain 8004-01,0.56
same,FICi,MRSA strain 8004-01; listed as Gos,.56
same,MIC OX (+),MRSA strain 8004-01,32
"Cc1cc(/C=C/c2ccc3cc(N(C)C)ccc3[n+]2C)c(C)n1-c1ccccc1 [Pyrvinium pamoate, 2-[(E)-2-(2,5-Dimethyl-1-phenylpyrrol-3-yl)ethenyl]-N,N,1-trimethylquinolin-1-ium-6-amine]",primary screen category by effect on growth of MRSA strain 923,[1],strong growth inhibitors on their own
same,primary screen category by effect on vraSR (Pvra-lux luminescence),[2],repressed Pvra::lux in both primary screens
same,OD600 category,[3],inhibited (of <0.8 were classified as oxacillin synergists or potentiators)
same,RG avg (relative growth),[3],0.39
same,Effect on vraSR transcription,[4],repress (“vraSR repressors” (mean RL of <0.8))
same,RL avg (relative luminescence),[4],0.31
same,classification of lux screen result against qRT-PCR (true/false repressor or stimulator),vraR transcription,true vraSR expression repressors
same,Effect on vraSR Transcription: With oxacillin,vraR transcription,vraR inhibitors; also recorded: repress
same,oxacillin MIC,[5]; compound 0.25 μM,16 µg/mL
same,oxacillin MIC,[5]; compound 0.5 μM,4 µg/mL
same,oxacillin MIC,[5]; compound 1 μM,2 µg/mL
same,change of the MIC of oxacillin with compound concentration,[5],dose dependent decrease
same,"bactericidal effect of oxacillin (MBC, >99.9% killing)",[5],increased the bactericidal effect of oxacillin
same,MIC 80 of Ox in presence of compound,diverse MRSA strains,32 µg/mL
same,MIC50 of oxacillin in the presence of compound,diverse MRSA strains,1 µg/mL
same,MIC80 of oxacillin in the presence of compound,diverse MRSA strains,0.032 µg/mL
same,fold decrease in the oxacillin MIC50,diverse MRSA strains,16 fold
same,MIC,"VRS1; VRS1, compound alone",2.24 µg/mL
same,fold decrease Van MIC,VRS1; VRS1,64 fold
same,MIC,"VRS2; VRS2, compound alone",1.12 µg/mL
same,Synergy category,"VRS2; VRS2, listed as Pyr",synergistic (fully potentiated vancomycin (FIC i<0.5))
same,MIC,"hVISA 2275; hVISA 2275, compound alone",16 µg/mL
same,FICi V + compound,hVISA 2275; hVISA 2275,0.54
same,Van FIC,hVISA 2275; hVISA 2275,0.50
same,compound FIC,hVISA 2275; hVISA 2275,0.04
same,fold decrease Van MIC,hVISA 2275; hVISA 2275,2 fold
same,MIC (in combination) compound+,hVISA 2275; hVISA 2275,0.56
same,Synergy category,"hVISA 2275; hVISA 2275, listed as Pyr",partial (partially potentiated vancomycin (FIC i>0.5 and <1.0))
same,Synergy category,VISA 2283; listed as Pyr,non syn
same,FIC Compound,strain 11095,0.25
same,FIC Ox,strain 11095,.0078
same,MIC cmpd alone,strain 11095,16
same,fold decrease of the oxacillin MIC,strain 11095,128 fold
same,FICi,strain 11095,0.26
same,FICi,strain 11095; listed as Pyr,.26
same,MIC OX (+),strain 11095; oxacillin in combination with compound,4
same,MIC cmpd alone,MRSA strain 8004-01,>4
same,MIC cmpd +,MRSA strain 8004-01,>4 µg/mL
same,FICi,MRSA strain 8004-01,7
same,MIC OX (+),MRSA strain 8004-01,>256
